# Reference: patent US11452731B2, “Method of treating and preventing loss of cognition” (ENDORECHERCHE, INC., priority 2009, dated 2022)
# Assay: Clinical trial ERC-205: DHEA 50 mg daily versus placebo on hot flushes in postmenopausal women (Example 10)
# Assay type: in vivo
# Conditions: 50 mg, strata 50 to 70 hot flushes per week at screening
# Method: Postmenopausal women experiencing moderate or severe hot flushes per week (as determined by a two week diary) were randomized to receive a daily dose of either placebo or 50 mg DHEA. Fifty evaluable participants (25 patients per arm) were treated for four months with a daily assessment of hot flushes recorded in a diary completed by each participant.
# Postmenopausal women aged 40 to 70 years with moderate or severe hot flushes per week, as confirmed by a two-week screening hot flush diary were enrolled after signing informed consent. The protocol was approved by the Institutional Review Board (IRB) of Le Centre Hospitalier de l'Université Laval and by Health Canada.
# The primary endpoint was the change from Baseline in the weekly frequency of moderate to severe hot flushes at Week 16, after four months of treatment. The objectives also included the change from Baseline in the weekly frequency of all hot flushes and the change from Baseline in the weekly weighted severity score.
# The response endpoint is the patient's paper diary which was filled in daily to specify the number and type of hot flushes as follows:
# The hot flush diary began as a Screening diary for two weeks prior to randomization whereby patients had to complete the diary daily, recording the number and severity of hot flushes. The patients had to record an average of 50 or more moderate or severe hot flushes per week over the two-week period to be eligible (i.e., at least 100 hot flushes documented on the two week Screening diary).
# Once randomized, the patient completed eight, two-week hot flush diaries upon beginning study medication. The diaries had to be filled out on a daily basis. The first diary was completed over the first two weeks and be returned on the two week visit. The second two-week diary was completed over the next two weeks of the first four week treatment period and was returned at the four week visit. At 4, 8, 12 and 16 week visits, two two-week diaries for hot flushes were collected.
# [1] = Screening (mean of 2 w), baseline
structure (smiles),measurement,setting,value
"C[C@]12CC[C@H](O)CC1=CC[C@@H]1[C@@H]2CC[C@]2(C)C(=O)CC[C@@H]12 [DHEA, dehydroepiandrosterone]",NUMBER OF ALL HOT FLUSHES PER WEEK (MEAN),[1],63.7
same,NUMBER OF MODERATE TO SEVERE HOT FLUSHES PER WEEK (MEAN),[1],56.7
same,WEIGHTED SEVERITY SCORE OF HOT FLUSHES PER WEEK (MEAN),[1],144.3
same,NUMBER OF ALL HOT FLUSHES PER WEEK (MEAN),Week 1,60.8
same,NUMBER OF MODERATE TO SEVERE HOT FLUSHES PER WEEK (MEAN),Week 1,54.2
same,WEIGHTED SEVERITY SCORE OF HOT FLUSHES PER WEEK (MEAN),Week 1,141.0
same,NUMBER OF ALL HOT FLUSHES PER WEEK (MEAN),Week 2,55.3
same,NUMBER OF MODERATE TO SEVERE HOT FLUSHES PER WEEK (MEAN),Week 2,49.0
same,WEIGHTED SEVERITY SCORE OF HOT FLUSHES PER WEEK (MEAN),Week 2,127.1
same,NUMBER OF ALL HOT FLUSHES PER WEEK (MEAN),Week 3,52.3
same,NUMBER OF MODERATE TO SEVERE HOT FLUSHES PER WEEK (MEAN),Week 3,46.5
same,WEIGHTED SEVERITY SCORE OF HOT FLUSHES PER WEEK (MEAN),Week 3,118.9
same,NUMBER OF ALL HOT FLUSHES PER WEEK (MEAN),Week 4,49.4
same,NUMBER OF MODERATE TO SEVERE HOT FLUSHES PER WEEK (MEAN),Week 4,44.0
same,WEIGHTED SEVERITY SCORE OF HOT FLUSHES PER WEEK (MEAN),Week 4,111.6
same,NUMBER OF ALL HOT FLUSHES PER WEEK (MEAN),Week 5,42.7
same,NUMBER OF MODERATE TO SEVERE HOT FLUSHES PER WEEK (MEAN),Week 5,38.3
same,WEIGHTED SEVERITY SCORE OF HOT FLUSHES PER WEEK (MEAN),Week 5,97.8
same,NUMBER OF ALL HOT FLUSHES PER WEEK (MEAN),Week 6,43.7
same,NUMBER OF MODERATE TO SEVERE HOT FLUSHES PER WEEK (MEAN),Week 6,39.8
same,WEIGHTED SEVERITY SCORE OF HOT FLUSHES PER WEEK (MEAN),Week 6,99.0
same,NUMBER OF ALL HOT FLUSHES PER WEEK (MEAN),Week 7,39.2
same,NUMBER OF MODERATE TO SEVERE HOT FLUSHES PER WEEK (MEAN),Week 7,34.7
same,WEIGHTED SEVERITY SCORE OF HOT FLUSHES PER WEEK (MEAN),Week 7,88.3
same,NUMBER OF ALL HOT FLUSHES PER WEEK (MEAN),Week 8,41.8
same,NUMBER OF MODERATE TO SEVERE HOT FLUSHES PER WEEK (MEAN),Week 8,38.1
same,WEIGHTED SEVERITY SCORE OF HOT FLUSHES PER WEEK (MEAN),Week 8,95.8
same,NUMBER OF ALL HOT FLUSHES PER WEEK (MEAN),Week 9,42.4
same,NUMBER OF MODERATE TO SEVERE HOT FLUSHES PER WEEK (MEAN),Week 9,38.5
same,WEIGHTED SEVERITY SCORE OF HOT FLUSHES PER WEEK (MEAN),Week 9,96.0
same,NUMBER OF ALL HOT FLUSHES PER WEEK (MEAN),Week 10,40.5
same,NUMBER OF MODERATE TO SEVERE HOT FLUSHES PER WEEK (MEAN),Week 10,36.6
same,WEIGHTED SEVERITY SCORE OF HOT FLUSHES PER WEEK (MEAN),Week 10,92.7
same,NUMBER OF ALL HOT FLUSHES PER WEEK (MEAN),Week 11,39.5
same,NUMBER OF MODERATE TO SEVERE HOT FLUSHES PER WEEK (MEAN),Week 11,35.6
same,WEIGHTED SEVERITY SCORE OF HOT FLUSHES PER WEEK (MEAN),Week 11,89.8
same,NUMBER OF ALL HOT FLUSHES PER WEEK (MEAN),Week 12,39.7
same,NUMBER OF MODERATE TO SEVERE HOT FLUSHES PER WEEK (MEAN),Week 12,35.8
same,WEIGHTED SEVERITY SCORE OF HOT FLUSHES PER WEEK (MEAN),Week 12,88.5
same,NUMBER OF ALL HOT FLUSHES PER WEEK (MEAN),Week 13,36.2
same,NUMBER OF MODERATE TO SEVERE HOT FLUSHES PER WEEK (MEAN),Week 13,32.8
same,WEIGHTED SEVERITY SCORE OF HOT FLUSHES PER WEEK (MEAN),Week 13,81.4
same,NUMBER OF ALL HOT FLUSHES PER WEEK (MEAN),Week 14,37.8
same,NUMBER OF MODERATE TO SEVERE HOT FLUSHES PER WEEK (MEAN),Week 14,34.2
same,WEIGHTED SEVERITY SCORE OF HOT FLUSHES PER WEEK (MEAN),Week 14,87.0
same,NUMBER OF ALL HOT FLUSHES PER WEEK (MEAN),Week 15,36.5
same,NUMBER OF MODERATE TO SEVERE HOT FLUSHES PER WEEK (MEAN),Week 15,33.7
